Assays:
Type in all cases: cell-based
Conditions in all cases: Table D16
WEE1 = target: T1, WEE1 (Homo sapiens, UniProt P30291+Q96SW2); experiment: Western blot degradation of WEE1 (hPBMC)
T1 construct: evaluate the effects of the compounds of the present disclosure on the expression of target proteins in cells; endogenous in cells; host or cells: hPBMC
Experimental: (§1) Conventional Western blot assay was performed to evaluate the effects of the compounds of the present disclosure on the expression of target proteins in cells.
(§2) (1) Cell Seeding and Protein Harvesting: The selected cells were processed according to the cell seeding procedure and protein harvesting procedure in Table III-2. Table III-2 Cell Seeding and Protein Harvesting Procedures
(§3) (2) To the collected supernatant, 5X SDS sample loading buffer was added, followed by denaturation at 95°C for 5 minutes. The denatured samples were then separated by SDS-PAGE electrophoresis on a polyacrylamide gel. Proteins were transferred to a nitrocellulose membrane (0.45 µm NC membrane), blocked with blocking buffer at room temperature for 1 hour, and subjected to antibody incubation and development procedures according to the antibody manufacturer's instructions (Cell Signaling Technology).
(§4) Half-Maximal Degradation Concentration value (the drug concentration required for degrading proteins by 50%, abbreviated as DC50) reads method: comparing the grayscale values of Western blot bands from drug-treated samples with those from blank DMSO-treated controls, and identifying the drug concentration range at which the grayscale value is half that of the DMSO-treated control bands.
(§5) DC50 values can be calculated using ImageJ software to measure grayscale values of Western blot bands from drug-treated samples. The concentration-response curve is fitted to estimate the drug concentration corresponding to half the grayscale value.
(§6) Target protein remaining (%) refers to the percentage of target protein remaining in hPBMC cells after treatment with protein degrader compounds.
(§7) Calculation method for target protein remaining (%): Use ImageJ software to measure grayscale values of Western blot bands from drug (protein degrader)-treated samples. The grayscale value of drug-treated bands is divided by that of internal control protein bands, and the resulting quotient is normalized to obtain the relative percentage of remaining target protein after protein degrader treatment.
(§8) Target protein degradation rate (%) = 100% - target protein remaining (%).

IKZF1 = target: T2, IKZF1 (Homo sapiens, UniProt Q13422+Q96SW2); experiment: Western blot degradation of IKZF1 (hPBMC)
T2 construct: evaluate the effects of the compounds of the present disclosure on the expression of target proteins in cells; endogenous in cells; host or cells: hPBMC
T2 sequence (Q13422 whole entry): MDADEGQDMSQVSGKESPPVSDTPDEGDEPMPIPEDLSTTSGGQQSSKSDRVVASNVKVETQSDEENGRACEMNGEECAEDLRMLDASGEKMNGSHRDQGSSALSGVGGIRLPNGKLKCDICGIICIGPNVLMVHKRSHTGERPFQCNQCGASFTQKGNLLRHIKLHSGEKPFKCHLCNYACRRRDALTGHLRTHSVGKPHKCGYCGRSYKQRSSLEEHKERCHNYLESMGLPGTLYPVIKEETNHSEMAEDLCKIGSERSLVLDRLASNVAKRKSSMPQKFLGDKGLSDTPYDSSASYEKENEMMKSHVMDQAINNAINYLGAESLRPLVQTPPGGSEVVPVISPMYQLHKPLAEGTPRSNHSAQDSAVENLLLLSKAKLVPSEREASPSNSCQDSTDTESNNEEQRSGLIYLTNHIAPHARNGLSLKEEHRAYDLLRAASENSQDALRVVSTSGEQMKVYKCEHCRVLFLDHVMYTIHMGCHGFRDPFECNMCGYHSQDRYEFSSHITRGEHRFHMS
T2 sequence (Q96SW2 whole entry): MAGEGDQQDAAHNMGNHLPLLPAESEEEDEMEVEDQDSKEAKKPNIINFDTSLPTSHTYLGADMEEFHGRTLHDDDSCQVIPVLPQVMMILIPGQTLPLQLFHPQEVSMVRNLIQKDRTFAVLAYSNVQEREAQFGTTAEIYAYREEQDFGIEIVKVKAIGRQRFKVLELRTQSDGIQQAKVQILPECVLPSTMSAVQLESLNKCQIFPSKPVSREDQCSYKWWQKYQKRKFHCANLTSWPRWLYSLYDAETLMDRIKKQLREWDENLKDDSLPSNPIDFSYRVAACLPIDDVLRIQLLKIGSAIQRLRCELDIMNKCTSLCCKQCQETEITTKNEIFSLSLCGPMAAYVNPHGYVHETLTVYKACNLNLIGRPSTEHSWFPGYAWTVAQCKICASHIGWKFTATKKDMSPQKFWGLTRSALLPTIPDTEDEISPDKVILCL
T2 sequence (Q16531 whole entry partner): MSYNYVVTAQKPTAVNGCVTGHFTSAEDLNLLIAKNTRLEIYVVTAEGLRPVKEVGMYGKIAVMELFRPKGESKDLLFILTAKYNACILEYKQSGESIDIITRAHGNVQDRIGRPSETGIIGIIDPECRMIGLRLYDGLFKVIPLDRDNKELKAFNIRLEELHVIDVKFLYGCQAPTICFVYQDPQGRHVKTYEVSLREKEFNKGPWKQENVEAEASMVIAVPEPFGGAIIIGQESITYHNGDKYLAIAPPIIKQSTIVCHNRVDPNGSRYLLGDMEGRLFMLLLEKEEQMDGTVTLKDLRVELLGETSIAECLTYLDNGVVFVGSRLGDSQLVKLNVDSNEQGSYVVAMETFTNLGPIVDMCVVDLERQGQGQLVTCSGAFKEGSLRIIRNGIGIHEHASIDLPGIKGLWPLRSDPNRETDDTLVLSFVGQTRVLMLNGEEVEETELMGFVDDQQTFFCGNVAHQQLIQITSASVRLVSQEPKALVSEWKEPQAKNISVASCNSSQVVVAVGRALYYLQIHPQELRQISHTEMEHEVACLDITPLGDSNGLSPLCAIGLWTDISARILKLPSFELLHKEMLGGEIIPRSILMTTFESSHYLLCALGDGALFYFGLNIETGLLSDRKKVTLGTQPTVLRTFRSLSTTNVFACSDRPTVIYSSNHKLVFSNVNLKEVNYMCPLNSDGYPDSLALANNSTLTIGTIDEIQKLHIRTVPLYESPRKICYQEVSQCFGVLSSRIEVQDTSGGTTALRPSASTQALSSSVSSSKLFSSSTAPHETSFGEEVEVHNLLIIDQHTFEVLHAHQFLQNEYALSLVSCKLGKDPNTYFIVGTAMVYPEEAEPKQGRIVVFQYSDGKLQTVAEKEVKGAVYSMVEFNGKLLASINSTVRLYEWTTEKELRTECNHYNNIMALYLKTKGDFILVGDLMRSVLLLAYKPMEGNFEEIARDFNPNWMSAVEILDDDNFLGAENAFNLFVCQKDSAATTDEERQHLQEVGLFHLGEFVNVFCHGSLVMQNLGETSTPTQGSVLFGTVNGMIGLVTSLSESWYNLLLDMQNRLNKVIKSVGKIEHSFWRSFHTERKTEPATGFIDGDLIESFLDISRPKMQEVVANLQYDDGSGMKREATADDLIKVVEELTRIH
Experimental: as §1, §2, §3, §4, §5, §6, §7, §8

IKZF2 = target: T3, IKZF2 (Homo sapiens, UniProt Q96SW2+Q9UKS7); experiment: Western blot degradation of IKZF2 (hPBMC)
T3 construct: evaluate the effects of the compounds of the present disclosure on the expression of target proteins in cells; endogenous in cells; host or cells: hPBMC
Experimental: as §1, §2, §3, §4, §5, §6, §7, §8

IKZF3 = target: T4, IKZF3 (Homo sapiens, UniProt Q96SW2+Q9UKT9); experiment: Western blot degradation of IKZF3 (hPBMC)
T4 construct: evaluate the effects of the compounds of the present disclosure on the expression of target proteins in cells; endogenous in cells; host or cells: hPBMC
T4 sequence (Q9UKT9 whole entry): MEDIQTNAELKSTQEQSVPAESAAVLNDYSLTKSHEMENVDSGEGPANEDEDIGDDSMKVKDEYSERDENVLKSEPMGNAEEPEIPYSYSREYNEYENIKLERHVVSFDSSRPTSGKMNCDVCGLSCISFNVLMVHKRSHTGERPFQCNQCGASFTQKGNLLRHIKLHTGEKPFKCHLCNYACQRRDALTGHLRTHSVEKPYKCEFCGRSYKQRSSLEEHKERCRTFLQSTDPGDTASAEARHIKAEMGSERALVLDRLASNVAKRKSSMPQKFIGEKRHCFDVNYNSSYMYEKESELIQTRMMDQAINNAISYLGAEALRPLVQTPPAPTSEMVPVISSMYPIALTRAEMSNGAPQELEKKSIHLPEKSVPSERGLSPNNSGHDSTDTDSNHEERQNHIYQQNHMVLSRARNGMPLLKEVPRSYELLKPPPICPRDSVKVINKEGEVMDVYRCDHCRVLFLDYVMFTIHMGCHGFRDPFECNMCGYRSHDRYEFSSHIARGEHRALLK
T4 sequence (Q96SW2 whole entry): as the sequence (Q96SW2 whole entry) above
T4 sequence (Q16531 whole entry partner): as the sequence (Q16531 whole entry partner) above
Experimental: as §1, §2, §3, §4, §5, §6, §7, §8

CK1a = target: T5, CK1a (Homo sapiens, UniProt P48729+Q96SW2); experiment: Western blot degradation of CK1a (hPBMC)
T5 construct: evaluate the effects of the compounds of the present disclosure on the expression of target proteins in cells; endogenous in cells; host or cells: hPBMC
T5 sequence (P48729 whole entry): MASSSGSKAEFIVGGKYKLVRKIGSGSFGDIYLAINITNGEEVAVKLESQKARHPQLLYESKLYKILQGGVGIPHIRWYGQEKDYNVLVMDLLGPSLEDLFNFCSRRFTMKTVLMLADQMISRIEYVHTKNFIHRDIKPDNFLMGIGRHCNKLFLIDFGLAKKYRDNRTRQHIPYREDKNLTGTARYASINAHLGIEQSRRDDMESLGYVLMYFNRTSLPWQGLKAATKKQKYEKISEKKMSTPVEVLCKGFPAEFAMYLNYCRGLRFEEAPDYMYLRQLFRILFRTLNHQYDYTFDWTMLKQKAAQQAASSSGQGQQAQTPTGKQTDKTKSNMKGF
T5 sequence (Q96SW2 whole entry): as the sequence (Q96SW2 whole entry) above
T5 sequence (Q16531 whole entry partner): as the sequence (Q16531 whole entry partner) above
Experimental: as §1, §2, §3, §4, §5, §6, §7, §8

GSPT1 = target: T6, GSPT1 (Homo sapiens, UniProt P15170+Q96SW2); experiment: Western blot degradation of GSPT1 (hPBMC)
T6 construct: evaluate the effects of the compounds of the present disclosure on the expression of target proteins in cells; endogenous in cells; host or cells: hPBMC
T6 sequence (P15170 whole entry): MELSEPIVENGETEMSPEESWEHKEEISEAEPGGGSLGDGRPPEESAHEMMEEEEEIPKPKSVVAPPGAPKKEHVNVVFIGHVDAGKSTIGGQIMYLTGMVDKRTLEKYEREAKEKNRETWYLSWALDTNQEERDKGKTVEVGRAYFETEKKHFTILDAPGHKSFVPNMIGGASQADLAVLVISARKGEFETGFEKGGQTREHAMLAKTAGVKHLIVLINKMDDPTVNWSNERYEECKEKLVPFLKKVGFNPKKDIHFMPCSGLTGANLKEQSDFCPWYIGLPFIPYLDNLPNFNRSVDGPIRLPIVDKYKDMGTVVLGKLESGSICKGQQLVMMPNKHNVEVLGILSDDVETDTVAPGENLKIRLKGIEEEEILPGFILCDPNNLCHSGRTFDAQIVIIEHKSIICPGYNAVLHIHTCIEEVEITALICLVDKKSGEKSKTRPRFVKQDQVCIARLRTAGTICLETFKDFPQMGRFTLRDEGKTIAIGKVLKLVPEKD
T6 sequence (Q96SW2 whole entry): as the sequence (Q96SW2 whole entry) above
T6 sequence (Q16531 whole entry partner): as the sequence (Q16531 whole entry partner) above
Experimental: as §1, §2, §3, §4, §5, §6, §7, §8

T1 sequence (P30291 whole entry): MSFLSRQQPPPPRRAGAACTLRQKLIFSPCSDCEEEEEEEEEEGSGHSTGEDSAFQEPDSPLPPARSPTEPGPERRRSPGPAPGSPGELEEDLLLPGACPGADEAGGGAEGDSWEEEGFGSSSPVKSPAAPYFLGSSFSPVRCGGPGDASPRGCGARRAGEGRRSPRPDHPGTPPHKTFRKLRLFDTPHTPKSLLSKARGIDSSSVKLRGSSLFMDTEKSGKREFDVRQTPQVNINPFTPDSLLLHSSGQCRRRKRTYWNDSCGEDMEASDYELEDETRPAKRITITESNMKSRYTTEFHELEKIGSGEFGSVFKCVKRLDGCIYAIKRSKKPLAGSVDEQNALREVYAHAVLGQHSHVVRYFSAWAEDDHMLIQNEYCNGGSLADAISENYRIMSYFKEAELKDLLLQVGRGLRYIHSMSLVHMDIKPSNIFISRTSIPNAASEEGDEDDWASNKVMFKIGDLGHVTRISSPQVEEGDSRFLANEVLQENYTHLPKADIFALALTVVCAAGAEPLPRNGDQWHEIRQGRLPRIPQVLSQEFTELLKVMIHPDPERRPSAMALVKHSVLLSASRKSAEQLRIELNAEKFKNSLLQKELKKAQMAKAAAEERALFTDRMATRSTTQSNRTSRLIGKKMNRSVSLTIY
T1 sequence (Q96SW2 whole entry): as the sequence (Q96SW2 whole entry) above
T1 sequence (Q16531 whole entry partner): as the sequence (Q16531 whole entry partner) above

SMILES	Degradation of substrate protein WEE1 (substrate protein remaining %) (WEE1)	Degradation of substrate protein IKZF1 (substrate protein remaining %) (IKZF1)	Degradation of substrate protein IKZF2 (substrate protein remaining %) (IKZF2)	Degradation of substrate protein IKZF3 (substrate protein remaining %) (IKZF3)	Degradation of substrate protein CKla (substrate protein remaining %) (CK1a)	Degradation of substrate protein GSPT1 (substrate protein remaining %) (GSPT1)
O=C1CCN(c2cncc(CCl)n2)C(=O)N1 [GT-07728, 1-(6-(Chloromethyl)pyrazin-2-yl)dihydropyrimidine-2,4(1H,3H)-dione]	A (A is defined as 0% ≤ substrate protein remaining % ≤ 80%)	A (A is defined as 0% ≤ substrate protein remaining % ≤ 80%)	A (A is defined as 0% ≤ substrate protein remaining % ≤ 80%)	A (A is defined as 0% ≤ substrate protein remaining % ≤ 80%)	B (B is defined as substrate protein remaining % > 80%)	B (B is defined as substrate protein remaining % > 80%)
O=C1CCN(c2cnc(CO)cn2)C(=O)N1 [GT-07634, 1-(5-(Hydroxymethyl)pyrazin-2-yl)dihydropyrimidine-2,4(1H,3H)-dione]	A (A is defined as 0% ≤ substrate protein remaining % ≤ 80%)	A (A is defined as 0% ≤ substrate protein remaining % ≤ 80%)	A (A is defined as 0% ≤ substrate protein remaining % ≤ 80%)	A (A is defined as 0% ≤ substrate protein remaining % ≤ 80%)	A (A is defined as 0% ≤ substrate protein remaining % ≤ 80%)	B (B is defined as substrate protein remaining % > 80%)
O=C1CCN(c2cncc(CO)n2)C(=O)N1 [GT-07632, 1-(6-(Hydroxymethyl)pyrazin-2-yl)dihydropyrimidine-2,4(1H,3H)-dione]	A (A is defined as 0% ≤ substrate protein remaining % ≤ 80%)	A (A is defined as 0% ≤ substrate protein remaining % ≤ 80%)	A (A is defined as 0% ≤ substrate protein remaining % ≤ 80%)	A (A is defined as 0% ≤ substrate protein remaining % ≤ 80%)	A (A is defined as 0% ≤ substrate protein remaining % ≤ 80%)	B (B is defined as substrate protein remaining % > 80%)
O=Cc1cncnc1NC1CCC(=O)NC1=O (stereo not drawn) [GT-07805, 4-((2,6-Dioxopiperidin-3-yl)amino)pyrimidine-5-carbaldehyde]	B (B is defined as substrate protein remaining % > 80%)	A (A is defined as 0% ≤ substrate protein remaining % ≤ 80%)	A (A is defined as 0% ≤ substrate protein remaining % ≤ 80%)	A (A is defined as 0% ≤ substrate protein remaining % ≤ 80%)	B (B is defined as substrate protein remaining % > 80%)	B (B is defined as substrate protein remaining % > 80%)
O=C1CCN(c2ccc(CCl)cn2)C(=O)N1 [GT-07009, 1-(5-(Chloromethyl)pyridin-2-yl)dihydropyrimidine-2,4(1H,3H)-dione]	B (B is defined as substrate protein remaining % > 80%)	B (B is defined as substrate protein remaining % > 80%)	B (B is defined as substrate protein remaining % > 80%)	B (B is defined as substrate protein remaining % > 80%)	A (A is defined as 0% ≤ substrate protein remaining % ≤ 80%)	B (B is defined as substrate protein remaining % > 80%)
O=C1CCN(c2cnc(F)c(CO)c2)C(=O)N1 [GT-07556, 1-(6-Fluoro-5-(hydroxymethyl)pyridin-3-yl)dihydropyrimidine-2,4(1H,3H)-dione]	A (A is defined as 0% ≤ substrate protein remaining % ≤ 80%)	A (A is defined as 0% ≤ substrate protein remaining % ≤ 80%)	B (B is defined as substrate protein remaining % > 80%)	A (A is defined as 0% ≤ substrate protein remaining % ≤ 80%)	A (A is defined as 0% ≤ substrate protein remaining % ≤ 80%)	B (B is defined as substrate protein remaining % > 80%)
O=C1CCC(Nc2cnccc2CO)C(=O)N1 (stereo not drawn) [GT-07559, 3-((4-(Hydroxymethyl)pyridin-3-yl)amino)piperidine-2,6-dione]	A (A is defined as 0% ≤ substrate protein remaining % ≤ 80%)	A (A is defined as 0% ≤ substrate protein remaining % ≤ 80%)	A (A is defined as 0% ≤ substrate protein remaining % ≤ 80%)	A (A is defined as 0% ≤ substrate protein remaining % ≤ 80%)	A (A is defined as 0% ≤ substrate protein remaining % ≤ 80%)	A (A is defined as 0% ≤ substrate protein remaining % ≤ 80%)
NCc1cncc(N2CCC(=O)NC2=O)n1 [GT-07801, 1-(6-(Aminomethyl)pyrazin-2-yl)dihydropyrimidine-2,4(1H,3H)-dione]	B (B is defined as substrate protein remaining % > 80%)	B (B is defined as substrate protein remaining % > 80%)	B (B is defined as substrate protein remaining % > 80%)	B (B is defined as substrate protein remaining % > 80%)	A (A is defined as 0% ≤ substrate protein remaining % ≤ 80%)	B (B is defined as substrate protein remaining % > 80%)
O=Cc1ccncc1NC1CCC(=O)NC1=O (stereo not drawn) [GT-07804, 3-((2,6-Dioxopiperidin-3-yl)amino)isonicotinaldehyde]	B (B is defined as substrate protein remaining % > 80%)	B (B is defined as substrate protein remaining % > 80%)	A (A is defined as 0% ≤ substrate protein remaining % ≤ 80%)	A (A is defined as 0% ≤ substrate protein remaining % ≤ 80%)	B (B is defined as substrate protein remaining % > 80%)	B (B is defined as substrate protein remaining % > 80%)
NCc1ccc(N2CCC(=O)NC2=O)cn1 [GT-07048, 1-(6-(Aminomethyl)pyridin-3-yl)dihydropyrimidine-2,4(1H,3H)-dione]	B (B is defined as substrate protein remaining % > 80%)	A (A is defined as 0% ≤ substrate protein remaining % ≤ 80%)	A (A is defined as 0% ≤ substrate protein remaining % ≤ 80%)	A (A is defined as 0% ≤ substrate protein remaining % ≤ 80%)	A (A is defined as 0% ≤ substrate protein remaining % ≤ 80%)	A (A is defined as 0% ≤ substrate protein remaining % ≤ 80%)
NCc1ccc(N2CCC(=O)NC2=O)nc1 [GT-07012, 1-(5-(Aminomethyl)pyridin-2-yl)dihydropyrimidine-2,4(1H,3H)-dione]	A (A is defined as 0% ≤ substrate protein remaining % ≤ 80%)	B (B is defined as substrate protein remaining % > 80%)	B (B is defined as substrate protein remaining % > 80%)	A (A is defined as 0% ≤ substrate protein remaining % ≤ 80%)	B (B is defined as substrate protein remaining % > 80%)	A (A is defined as 0% ≤ substrate protein remaining % ≤ 80%)

Source: patent publication EP4678638A1, “NEW E3 UBIQUITIN LIGASE LIGAND, PROTEIN DEGRADATION AGENT AND USE THEREOF” (priority 2023, dated 2024)
